Drawing on BindingDB's records for doi:10.1016/j.bioorg.2017.01.006 (Jaipur National University, 2017), this text covers IC50 for five molecules.

A value given as a limit tells only on which side of the number the result lay.

This assay concerns the target Gag-Pol polyprotein (Human immunodeficiency virus type 1 group M subtype B (isolate HXB2), UniProt P04585). In words: RT Assay. Conditions: 37 °C. The method, then:
To a lysis buffer (20 μl), 4-6 ng recombinant HIV-1-RT was added in separate reaction tubes. Lysis buffer without HIV-1-RT was used as a negative control. Standards and test compound RT inhibitor (10 μg) were diluted with lysis buffer. This mixture was incubated for 1 h at 37 °C. For the number of micro plate modules to be used, enough foil bags were opened and micro plate modules were put into the frame in the correct orientation. The above samples were transferred to wells of microplate module. After addition it was covered with cover foil and incubated at 37 °C for 1 h. Solution was removed and rinsed five times with 250 μl of washing buffer per well for 30 s to each well. Then washing buffer was removed carefully. 200 μl of anti-DIG-POD working dilution was added to individual well and covered with cover foil and incubated at 37 °C for 1 h. Anti-DIG-POD working dilution solution was completely removed. Microplate module were washed five times for 30 s with washing buffer 250 μl and removed. 200 μl of ABTS substrate solution was added to individual well and incubated between 15 °C and 25 °C till (15−30 min) green color was obtained.
`CC1=C(C(=O)NC(=O)CN2C(=O)C(=O)c3ccccc32)C(c2ccc(Cl)cc2)NC(=O)N1` (stereo not given) [4-(4-Chlorophenyl)-N-(2-(2,3-dioxoindolin-1-yl)acetyl)-6-methyl-2-oxo-1,2,3,4-tetrahydro pyrimidine-5-carboxamide (9h)] showed an IC50 above 100 nM.

Turning to `CC1=C(C(=O)NC(=O)CN2C(=O)C(=O)c3ccccc32)C(C)NC(=O)N1` (stereo not given) [N-(2-(2,3-Dioxoindolin-1-yl)acetyl)-4,6-dimethyl-2-oxo-1,2,3,4-tetrahydropyrimidine-5-carboxamide (9c)], the IC50 amounted to 64 nM.

As to `CCC1NC(=O)NC(C)=C1C(=O)NC(=O)CN1C(=O)C(=O)c2ccccc21` (stereo not given) [N-(2-(2,3-Dioxoindolin-1-yl)acetyl)-4-ethyl-6-methyl-2-oxo-1,2,3,4-tetrahydropyrimidine-5-carboxamide (9d)], the IC50 was determined as 67 nM.

The molecule `CCCC1NC(=O)NC(C)=C1C(=O)NC(=O)CN1C(=O)C(=O)c2ccccc21` (stereo not given) [N-(2-(2,3-Dioxoindolin-1-yl)acetyl)-6-methyl-2-oxo-4-propyl-1,2,3,4-tetrahydropyrimidine-5-carboxamide (9e)] gave an IC50 above 100 nM.

The molecule `Cc1cc(/C=C/C#N)cc(C)c1Nc1ccnc(Nc2ccc(C#N)cc2)n1` [Rilpivirine] registered an IC50 of 68 nM.

A word on the IC50: it is the midpoint of a concentration-inhibition curve.
